Read-outs that look alike come from different tables or passages of the source. Where a SMILES comes first, the peptide text is derived from it. [ ]: non-standard residue; d: D form. The star is where a group is joined. Fmoc = O=C(OCC1c2ccccc2-c2ccccc21)*; Cha = N[C@@H](CC1CCCCC1)C(=O)O; AMC = Cc1cc(=O)oc2cc(N*)ccc12
Legend:
[1] = test system: CF-1 mice (seizures induced by 6 Hz corneal stimulation); details: cited from earlier work; for ED50, 6 Hz model, 32 mA (95% confidence interval) / ED50, 6 Hz model, 44 mA (95% confidence interval): ref Barton et al., 2001[19]
[2] = test system: corneal kindled mouse (fully expressed secondarily generalized seizure); details: i.p.; ref Rowley et al., manuscript in preparation; cited from earlier work
[3] = test system: non-galanin receptors (5-HT-1A and 1B, D2 dopamine, ghrelin, melanocortin, NPY, μ-opioid receptors); details: at 10 μM, NPY (galnon only), μ-opioid (galmic only); cited from earlier work
[4] = test system: galanin receptors GalR1 and GalR2; details: cited from earlier work; for Fold difference in affinity for GalR1 and GalR2: receptor subtype specificity
[5] = test system: CF-1 mice (seizures induced by 6 Hz corneal stimulation); experiment: 6 Hz psychomotor seizure test; assay type: in vivo, mouse; details: 4 mg/kg i.p.

Question: Which “Activity in 6 Hz 32 mA model (in words)” value ([1]; 4 mg/kg i.p., 32 mA, ref Bulaj et al, 2008.[17]) does the source give for GWTLNSAGYLLGPHAV-NH2 [Gal(1-16)] here?
Answer: inactive

Question: Which results are given for `Nc1nnc(-c2cccc(Cl)c2Cl)c(N)n1` [Lamotrigine, lamotrigine]?
Answer: ED50, 6 Hz model, 32 mA (95% confidence interval) ([1]; i.p., 32 mA): > 60 mg/kg; ED50, 6 Hz model, 44 mA (95% confidence interval) ([1]; i.p.): > 60 mg/kg

Question: Which “ED50, 6 Hz model, 44 mA (95% confidence interval)” value ([1]; i.p.) does the source give for `CCC1(C)CC(=O)NC1=O` (centres unmarked) [Ethosuximide, ethosuximide] here?
Answer: > 600 mg/kg

Question: With `NC(=O)N1c2ccccc2C=Cc2ccccc21` [CBZ, carbamazepine] as the compound, how does the “Active dose in corneal kindled mouse model” value [2] read?
Answer: 33 mg/kg

Question: Which “Interaction with non-galanin receptors” value [3] does the source give for `COC(=O)[C@H](CCCCN)NC(=O)[C@]1(C)NC(=O)c2nc(oc2C)[C@](C)(C(=O)NC2c3ccccc3-c3ccccc32)NC(=O)c2nc(oc2C)[C@](C)(C(=O)NCC2CCCCC2)NC(=O)c2nc1oc2C` [galmic] here?
Answer: interact with a variety of non-galanin receptors

Question: And the “Fold lower affinity for galanin receptors relative to the native peptide” value [4]?
Answer: 10,000-100,000 fold

Question: And the “Fold difference in affinity for GalR1 and GalR2” value [4]?
Answer: 2-3 fold

Question: For `COC[C@@H](NC(C)=O)C(=O)NCc1ccccc1` [Lacosamide], which ED50 ([1]; read-out: ED50, 6 Hz model, 32 mA (95% confidence interval), i.p., 32 mA, ref Stöhr et al., 2007[44]) is on record?
Answer: 9.9 mg/kg

Question: With `O=C1NC(=O)C(c2ccccc2)(c2ccccc2)N1` [Phenytoin, phenytoin] as the compound, how does the “ED50, 6 Hz model, 32 mA (95% confidence interval)” value ([1]; i.p., 32 mA) read?
Answer: > 60 mg/kg

Question: And the “ED50, 6 Hz model, 44 mA (95% confidence interval)” value ([1]; i.p.)?
Answer: > 60 mg/kg

Question: Which “Activity in 6 Hz 32 mA model (in words)” value ([5]; 32 mA, tested across time) does the source give for Ac-YLLGPKK(Lys-P)K [NAX 5055 truncated] here?
Answer: inactive

Question: What about the “Mice protected from seizures / mice tested, 15′” value ([5]; 6 Hz 32 mA, CF-1 mice, 15 min, groups of four) of the same compound?
Answer: 0/4

Question: And the “Mice protected from seizures / mice tested, 30′” value ([5]; 6 Hz 32 mA, CF-1 mice, 30 min, groups of four)?
Answer: 0/4

Question: What about the “Mice protected from seizures / mice tested, 60′” value ([5]; 6 Hz 32 mA, CF-1 mice, 60 min, groups of four) of the same compound?
Answer: 0/4

Question: What about the “Mice protected from seizures / mice tested, 120′” value ([5]; 6 Hz 32 mA, CF-1 mice, 120 min, groups of four) of the same compound?
Answer: 0/4

Question: And the “Mice protected from seizures / mice tested, 240′” value ([5]; 6 Hz 32 mA, CF-1 mice, 240 min, groups of four)?
Answer: 0/4

Question: What does the source list for `Cc1cc(=O)oc2cc(NC(=O)[C@H](CCCCN)NC(=O)[C@H](CC3CCCCC3)NC(=O)OCC3c4ccccc4-c4ccccc43)ccc12` [galnon] (Fmoc-[Cha]-Lys-{AMC})?
Answer: Interaction with non-galanin receptors [3]: interact with a variety of non-galanin receptors; Fold lower affinity for galanin receptors relative to the native peptide [4]: 10,000-100,000 fold; Fold difference in affinity for GalR1 and GalR2 [4]: 2-3 fold

Source: PMC4402707 (Neurotherapeutics : the journal of the American Society for …, 2009)
